Measurements reported in ChEMBL document CHEMBL1201861, “Genomics of Drug Sensitity in Cancer screening data, Wellcome Trust Sanger Institute”.

How the values were obtained:
NCI-H719 = experiment: cells; assay type: functional, cell-based; conditions: Homo sapiens;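 also: growth inhibition of the cultured cell line, read out with a viability assay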
Description: SANGER: Inhibition of human NCI-H719 cell growth in a cell viability assay.

LC-1F = experiment: cells; assay type: functional, cell-based; conditions: Homo sapiens;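 also: growth inhibition of human LC-1F cells, read out with a cell viability assay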
Description: SANGER: Inhibition of human LC-1F cell growth in a cell viability assay.

TUR = experiment: cells; assay type: functional, cell-based; conditions: Homo sapiens;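 also: growth inhibition of human TUR cells, read out with a cell viability assay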
Description: SANGER: Inhibition of human TUR cell growth in a cell viability assay.

NCI-H322M = experiment: cells; assay type: functional, cell-based; conditions: Homo sapiens;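 also: cell viability assay measuring inhibition of growth of human NCI-H322M cells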
Description: SANGER: Inhibition of human NCI-H322M cell growth in a cell viability assay.

G-361 = experiment: cells; assay type: functional, cell-based, Homo sapiens; conditions: Homo sapiens, G-361
HCC1599 = experiment: cells; assay type: functional, cell-based; conditions: Homo sapiens;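 also: growth inhibition of HCC1599 cells, read out in a cell viability assay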
Description: SANGER: Inhibition of human HCC1599 cell growth in a cell viability assay.

NCI-H2009 = experiment: cells; assay type: functional, cell-based, Homo sapiens; conditions: Homo sapiens, NCI-H2009;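 also: cell viability assay measuring inhibition of NCI-H2009 cell growth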
Description: SANGER: Inhibition of human NCI-H2009 cell growth in a cell viability assay.

HCT-15 = experiment: cells; assay type: functional, cell-based, Homo sapiens; conditions: Homo sapiens, HCT-15;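 also: cell viability readout, IC50 reflecting suppression of HCT-15 cell growth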
Description: SANGER: Inhibition of human HCT-15 cell growth in a cell viability assay.

EB2 = experiment: cells; assay type: functional, cell-based; conditions: Homo sapiens;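 also: growth inhibition of EB2 cells, read out with a cell viability assay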
Description: SANGER: Inhibition of human EB2 cell growth in a cell viability assay.

LP-1 = experiment: cells; assay type: functional, cell-based; conditions: Homo sapiens;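 also: growth inhibition of human LP-1 cells, with the read-out taken from a cell viability assay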
Description: SANGER: Inhibition of human LP-1 cell growth in a cell viability assay.

NCI-H1694 = experiment: cells; assay type: functional, cell-based; conditions: Homo sapiens;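 also: cell viability assay measuring inhibition of growth in human NCI-H1694 cells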
Description: SANGER: Inhibition of human NCI-H1694 cell growth in a cell viability assay.

KMS-12-PE = experiment: cells; assay type: functional, cell-based; conditions: Homo sapiens;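 also: growth inhibition of human KMS-12-PE cells, measured with a cell viability assay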
Description: SANGER: Inhibition of human KMS-12-PE cell growth in a cell viability assay.

DMS-153 = experiment: cells; assay type: functional, cell-based; conditions: Homo sapiens
Description: SANGER: Inhibition of human DMS-153 cell growth in a cell viability assay.

NCI-H2171 = experiment: cells; assay type: functional, cell-based; conditions: Homo sapiens;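 also: growth inhibition of human NCI-H2171 cells, read out by a cell viability assay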
Description: SANGER: Inhibition of human NCI-H2171 cell growth in a cell viability assay.

NCI-H187 = experiment: cells; assay type: functional, cell-based; conditions: Homo sapiens;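 also: growth inhibition of NCI-H187 cells, read out as cell viability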
Description: SANGER: Inhibition of human NCI-H187 cell growth in a cell viability assay.

K052 = experiment: cells; assay type: functional, cell-based; conditions: Homo sapiens;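 also: Read-out from a cell viability assay, IC50 reflecting suppression of K052 cell growth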
Description: SANGER: Inhibition of human K052 cell growth in a cell viability assay.

Daudi = experiment: cells; assay type: functional, cell-based; conditions: Homo sapiens;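 also: growth inhibition of Daudi cells, read out by a viability assay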
Description: SANGER: Inhibition of human Daudi cell growth in a cell viability assay.

NCI-H2141 = experiment: cells; assay type: functional, cell-based; conditions: Homo sapiens;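 also: growth inhibition of human NCI-H2141 cells, read out with a cell viability assay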
Description: SANGER: Inhibition of human NCI-H2141 cell growth in a cell viability assay.

SR = experiment: cells; assay type: functional, cell-based; conditions: Homo sapiens
Description: SANGER: Inhibition of human SR cell growth in a cell viability assay.

BC1 cell line = experiment: SANGER: Inhibition of human BC-1 cell growth in a cell viability assay.; assay type: functional, cell-based
NCI-H522 = experiment: cells; assay type: functional, cell-based, Homo sapiens; conditions: Homo sapiens, NCI-H522;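 also: cell viability assay measuring growth inhibition of human NCI-H522 cells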
Description: SANGER: Inhibition of human NCI-H522 cell growth in a cell viability assay.

NCI-H2227 = experiment: cells; assay type: functional, cell-based; conditions: Homo sapiens;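 also: growth inhibition of the human cell line, read out with a cell viability assay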
Description: SANGER: Inhibition of human NCI-H2227 cell growth in a cell viability assay.

EHEB = experiment: cells; assay type: functional, cell-based; conditions: Homo sapiens;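 also: growth inhibition of human EHEB cells, read out with a cell viability assay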
Description: SANGER: Inhibition of human EHEB cell growth in a cell viability assay.

NCI-H64 = experiment: cells; assay type: functional, cell-based; conditions: Homo sapiens;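 also: growth inhibition of NCI-H64 cells, read out with a cell viability assay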
Description: SANGER: Inhibition of human NCI-H64 cell growth in a cell viability assay.

ARH-77 = experiment: cells; assay type: functional, cell-based; conditions: Homo sapiens;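 also: growth inhibition of ARH-77 cells, read out by a cell viability assay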
Description: SANGER: Inhibition of human ARH-77 cell growth in a cell viability assay.

EB-3 = experiment: cells; assay type: functional, cell-based; conditions: Homo sapiens;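 also: human EB-3 cells, growth inhibition read out via a cell viability assay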
Description: SANGER: Inhibition of human EB-3 cell growth in a cell viability assay.

DG-75 = experiment: cells; assay type: functional, cell-based; conditions: Homo sapiens;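 also: growth inhibition of DG-75 cells, read out with a cell viability assay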
Description: SANGER: Inhibition of human DG-75 cell growth in a cell viability assay.

NCI-H1417 = experiment: cells; assay type: functional, cell-based; conditions: Homo sapiens;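 also: human NCI-H1417 cells, growth inhibition determined with a cell viability readout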
Description: SANGER: Inhibition of human NCI-H1417 cell growth in a cell viability assay.

CAL-148 = experiment: cells; assay type: functional, cell-based; conditions: Homo sapiens
Description: SANGER: Inhibition of human CAL-148 cell growth in a cell viability assay.

RPMI-6666 = experiment: cells; assay type: functional, cell-based; conditions: Homo sapiens
Description: SANGER: Inhibition of human RPMI-6666 cell growth in a cell viability assay.

SJRH30 = experiment: cells; assay type: functional, cell-based; conditions: Homo sapiens;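 also: growth inhibition of human SJRH30 cells, read out with a cell viability assay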
Description: SANGER: Inhibition of human SJRH30 cell growth in a cell viability assay.

REH = experiment: cells; assay type: functional, cell-based; conditions: Homo sapiens;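 also: growth inhibition of REH cells determined with a cell viability read-out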
Description: SANGER: Inhibition of human REH cell growth in a cell viability assay.

IM-9 = experiment: SANGER: Inhibition of human IM-9 cell growth in a cell viability assay.; assay type: functional, cell-based
MDA-MB-134-VI = experiment: cells; assay type: functional, cell-based; conditions: Homo sapiens
Description: SANGER: Inhibition of human MDA-MB-134-VI cell growth in a cell viability assay.

NCI-H748 = experiment: cells; assay type: functional, cell-based; conditions: Homo sapiens;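 also: growth inhibition of NCI-H748 cells, measured by a cell viability assay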
Description: SANGER: Inhibition of human NCI-H748 cell growth in a cell viability assay.

IST-SL2 = experiment: cells; assay type: functional, cell-based; conditions: Homo sapiens;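 also: growth inhibition of human IST-SL2 cells, read out by a cell viability assay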
Description: SANGER: Inhibition of human IST-SL2 cell growth in a cell viability assay.

IMR-5 = experiment: cells; assay type: functional, cell-based; conditions: Homo sapiens;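 also: growth inhibition of human IMR-5 cells, read out with a cell viability assay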
Description: SANGER: Inhibition of human IMR-5 cell growth in a cell viability assay.

SK-MM-2 = experiment: cells; assay type: functional, cell-based; conditions: Homo sapiens;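 also: growth inhibition of human SK-MM-2 cells, read out with a cell viability assay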
Description: SANGER: Inhibition of human SK-MM-2 cell growth in a cell viability assay.

NCI-H345 = experiment: cells; assay type: functional, cell-based; conditions: Homo sapiens;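 also: growth inhibition of NCI-H345 cells measured with a cell viability assay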
Description: SANGER: Inhibition of human NCI-H345 cell growth in a cell viability assay.

ECC4 = experiment: cells; assay type: functional, cell-based; conditions: Homo sapiens;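 also: growth inhibition of ECC4 cells, read out with a cell viability assay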
Description: SANGER: Inhibition of human ECC4 cell growth in a cell viability assay.

NCI-H1703 = experiment: cells; assay type: functional, cell-based, Homo sapiens; conditions: Homo sapiens, NCI-H1703;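 also: growth inhibition of NCI-H1703 cells, read out via a cell viability assay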
Description: SANGER: Inhibition of human NCI-H1703 cell growth in a cell viability assay.

SCLC-21H = experiment: cells; assay type: functional, cell-based; conditions: Homo sapiens;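 also: growth inhibition of cultured human SCLC-21H cells, read out with a cell viability assay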
Description: SANGER: Inhibition of human SCLC-21H cell growth in a cell viability assay.

NCCIT = experiment: SANGER: Inhibition of human NCCIT cell growth in a cell viability assay.; assay type: functional, cell-based
NCI-H460 = experiment: cells; assay type: functional, cell-based, Homo sapiens; conditions: Homo sapiens, NCI-H460;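 also: cell viability assay scoring growth inhibition of human NCI-H460 cells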
Description: SANGER: Inhibition of human NCI-H460 cell growth in a cell viability assay.

MEL-JUSO = experiment: cells; assay type: functional, cell-based, Homo sapiens; conditions: Homo sapiens, MEL-JUSO;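 also: growth inhibition of human MEL-JUSO cells, read out with a cell viability assay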
Description: SANGER: Inhibition of human MEL-JUSO cell growth in a cell viability assay.

NALM-6 = experiment: cells; assay type: functional, cell-based; conditions: Homo sapiens;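 also: growth inhibition of NALM-6 cells, read out with a cell viability assay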
Description: SANGER: Inhibition of human NALM-6 cell growth in a cell viability assay.

LB647-SCLC = experiment: cells; assay type: functional, cell-based; conditions: Homo sapiens;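 also: cell growth inhibition, read out by a viability assay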
Description: SANGER: Inhibition of human LB647-SCLC cell growth in a cell viability assay.

NCI-H1882 = experiment: cells; assay type: functional, cell-based; conditions: Homo sapiens
Description: SANGER: Inhibition of human NCI-H1882 cell growth in a cell viability assay.

MC-CAR = experiment: cells; assay type: functional, cell-based; conditions: Homo sapiens;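 also: growth inhibition of the human MC-CAR cell line, read out by a cell viability assay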
Description: SANGER: Inhibition of human MC-CAR cell growth in a cell viability assay.

THP-1 = experiment: cells; assay type: functional, cell-based; conditions: Homo sapiens;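 also: growth inhibition of THP-1 cells, read out via a cell viability assay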
Description: SANGER: Inhibition of human THP-1 cell growth in a cell viability assay.

ST486 = experiment: SANGER: Inhibition of human ST486 cell growth in a cell viability assay.; assay type: functional, cell-based

`Cn1cncc1[C@@](N)(c1ccc(Cl)cc1)c1ccc2c(c1)c(-c1cccc(Cl)c1)cc(=O)n2C` [TIPIFARNIB] gave an IC50 (NCI-H719) of 10.5 µM, an IC50 (LC-1F) of over 16 µM and an IC50 (TUR) of 0.871 µM. For the same compound, the IC50 (NCI-H322M) was over 16 µM, the IC50 (G-361) was 1.14 µM and the IC50 (HCC1599) was over 16 µM. It also gave an IC50 (NCI-H2009) of 0.363 µM, an IC50 (HCT-15) of 0.327 µM and an IC50 (EB2) of 2.72 µM. For the same compound, the IC50 (LP-1) was over 16 µM, the IC50 (NCI-H1694) was over 16 µM and the IC50 (KMS-12-PE) was over 16 µM. For the same compound, the IC50 (DMS-153) was over 16 µM, the IC50 (NCI-H2171) was 3.55 µM and the IC50 (NCI-H187) was over 16 µM. The IC50 (K052) was 15.9 µM, the IC50 (Daudi) was 2.5 µM and the IC50 (NCI-H2141) was over 16 µM. The IC50 (SR) was 1.79 µM, the IC50 (BC1 cell line) was 0.13 µM and the IC50 (NCI-H522) was 2.4 µM. The IC50 (NCI-H2227) was over 16 µM, the IC50 (EHEB) was over 16 µM and the IC50 (NCI-H64) was over 16 µM. The IC50 (ARH-77) was over 16 µM, the IC50 (EB-3) was 9.1 µM and the IC50 (DG-75) was over 16 µM. The IC50 (NCI-H1417) was over 16 µM, the IC50 (CAL-148) was 0.884 µM and the IC50 (RPMI-6666) was under 0.0625 µM. The IC50 (SJRH30) was 8.71 µM, the IC50 (REH) was 0.0592 µM and the IC50 (IM-9) was over 16 µM. The IC50 (MDA-MB-134-VI) was over 16 µM, the IC50 (NCI-H748) was over 16 µM and the IC50 (IST-SL2) was 13.3 µM. For the same compound, the IC50 (IMR-5) was over 16 µM, the IC50 (SK-MM-2) was over 16 µM and the IC50 (NCI-H345) was over 16 µM. The IC50 (ECC4) was over 16 µM, the IC50 (NCI-H1703) was over 16 µM and the IC50 (SCLC-21H) was over 16 µM. For the same compound, the IC50 (NCCIT) was 1.28 µM, the IC50 (NCI-H460) was 4.93 µM and the IC50 (MEL-JUSO) was 0.0234 µM. The IC50 (NALM-6) was 0.0362 µM, the IC50 (LB647-SCLC) was over 16 µM and the IC50 (NCI-H1882) was over 16 µM. It also gave an IC50 (MC-CAR) of 9.07 µM, an IC50 (THP-1) of over 16 µM and an IC50 (ST486) of 1.26 µM.

In the case of `COC(=O)CNC(=O)C(=O)OC`, the IC50 (NCI-H719) is reported as 566 µM, the IC50 (LC-1F) is reported as over 4000 µM and the IC50 (TUR) is reported as 171 µM. The IC50 (NCI-H322M) was over 4000 µM, the IC50 (G-361) was 1180 µM and the IC50 (HCC1599) was 129 µM. For the same compound, the IC50 (NCI-H2009) was 296 µM, the IC50 (HCT-15) was 1820 µM and the IC50 (EB2) was 297 µM. It also gave an IC50 (LP-1) of 190 µM, an IC50 (NCI-H1694) of 291 µM and an IC50 (KMS-12-PE) of 628 µM. The IC50 (DMS-153) was over 4000 µM, the IC50 (NCI-H2171) was over 4000 µM and the IC50 (NCI-H187) was 595 µM. The IC50 (K052) was 171 µM, the IC50 (Daudi) was 68.3 µM and the IC50 (NCI-H2141) was 351 µM. The IC50 (SR) was 4.58 µM, the IC50 (BC1 cell line) was 86.1 µM and the IC50 (NCI-H522) was 293 µM. The IC50 (NCI-H2227) was 3060 µM, the IC50 (EHEB) was 271 µM and the IC50 (NCI-H64) was 273 µM. It also gave an IC50 (ARH-77) of 260 µM, an IC50 (EB-3) of 49.6 µM and an IC50 (DG-75) of 1050 µM. The IC50 (NCI-H1417) was 2380 µM, the IC50 (CAL-148) was over 4000 µM and the IC50 (RPMI-6666) was 228 µM. The IC50 (SJRH30) was 1550 µM, the IC50 (REH) was 308 µM and the IC50 (IM-9) was over 4000 µM. For the same compound, the IC50 (MDA-MB-134-VI) was over 4000 µM, the IC50 (NCI-H748) was 254 µM and the IC50 (IST-SL2) was 157 µM. The IC50 (IMR-5) was 254 µM, the IC50 (SK-MM-2) was 101 µM and the IC50 (NCI-H345) was 648 µM. For the same compound, the IC50 (ECC4) was 3580 µM, the IC50 (NCI-H1703) was 1660 µM and the IC50 (SCLC-21H) was over 4000 µM. The IC50 (NCCIT) was 99.8 µM, the IC50 (NCI-H460) was 159 µM and the IC50 (MEL-JUSO) was 275 µM. For the same compound, the IC50 (NALM-6) was 85 µM, the IC50 (LB647-SCLC) was 3530 µM and the IC50 (NCI-H1882) was 134 µM. For the same compound, the IC50 (MC-CAR) was 509 µM, the IC50 (THP-1) was over 4000 µM and the IC50 (ST486) was 71 µM.
